Consider 14 compounds from patent publication US12065428B2, “Anti-viral compounds” (Aligos Therapeutics, Inc., priority 2021, dated 2024).

The nature of data set [1]: Cytotoxicity plates without OC43 virus in HeLa cells. The data set is classed as cell-based. As to conditions: human, HeLa cells (uninfected). The method, then:
The human beta-coronavirus OC43 was purchased from ATCC (Manassas, VA) and propagated using HCT-8 human colorectal epithelial cells (ATCC). HeLa human cervical epithelial cells (ATCC) were used as susceptible host cell lines and were cultured using EMEM media, supplemented with 10% fetal bovine serum (FBS), 1% (v/v) penicillin/streptomycin (P/S), 1% (v/v) HEPES and 1% (v/v) cellgro Glutagro™ supplement (all Corning, Manassas, VA) at 37° C. For the OC43 antiviral assay, 1.5×10^4 HeLa cells per well were plated in 100 μL complete media in white 96-well plates with clear bottoms at 37° C. for up to 24 h to facilitate attachment and allow cells to recover from seeding stresses. Next day, the cell culture medium was removed. Serially diluted compounds in 100 μL assay media (EMEM, 2% FBS, 1% P/S, 1% cellgro Glutagro™ supplement, 1% HEPES) were added to the cells and incubated for 4H at 37° C. in a humidified 5% CO2 incubator. 100 μL of OC43 virus stock was diluted to a concentration known to produce optimal cytopathic effect, inducing 80-90% reduction in cell viability. 96-well plates were incubated for 6 (HeLa) days at 33° C.; each plate contains uninfected control wells as well as virus-infected wells that were not treated with compound. Cytotoxicity plates without the addition of OC43 virus were carried out in parallel. At the end of the incubation period, 100 μL cell culture supernatant was replaced with 100 μL cell-titer-glo reagent (Promega, Madison, WI) and incubated for at least 10 min at rt prior to measuring luminescence. Luminescence was measured on a Perkin Elmer (Waltham, MA) Envision plate reader. Antiviral % inhibition was calculated as follows: [(Compound treated cells infected sample)−(no compound infected control)]/[(Uninfected control)−(no compound infected control)]*100; Using GraphPad (San Diego, CA) prism software version 8.3.1, the antiviral dose-response plot was generated as a sigmoidal fit, log(inhibitor) vs response-variable slope (four parameters) model and the EC50 was calculated which is the predicted compound concentration corresponding to a 50% inhibition of the viral cytopathic effect.

The target in data set [2] is T1, human cathepsin L (Homo sapiens, UniProt P07711).
T1 construct: purchased R&D Systems
T1 sequence (P07711 114-333): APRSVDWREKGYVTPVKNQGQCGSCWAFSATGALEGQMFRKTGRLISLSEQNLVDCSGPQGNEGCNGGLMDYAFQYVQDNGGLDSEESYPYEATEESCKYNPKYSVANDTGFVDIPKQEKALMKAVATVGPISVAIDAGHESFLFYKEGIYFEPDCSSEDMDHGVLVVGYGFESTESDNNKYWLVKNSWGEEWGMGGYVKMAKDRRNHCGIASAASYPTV
Description: Cathepsin L assay (Z-FR-AMC fluorescence). In kind it is biochemical. As to conditions: 10 pM human cathepsin L, 30 mins preincubation; class symbols. The method, then:
For the cathepsin L assay, 10 pM of human cathepsin L (R&D Systems; Minneapolis, MN) was preincubated for 30 mins with test compounds. Reactions were initiated by the addition of a peptide substrate Z-FR-AMC (final concentration 2 μM, Anaspec; Fremont, CA). Fluorescence was measured at 2-minute intervals for 30 mins using a 355/460 excitation/emission filter module on an Envision plate reader (Perkin Elmer; Waltham, MA). The IC50 values were calculated for each assay by fitting the curves using a four-parameter equation in GraphPad Prism.

Data set [3] relates to SARS-CoV-2-GHB-03021/2020. The data set can be described thus: microbe, parasite or virus in culture. As to conditions: Severe acute respiratory syndrome coronavirus 2, Vero C1008, 96 h; read-out: VeroE6 + CP (EC50). The data set is classed as cell-based.
Data set [4] concerns the target T2, SARS-Cov-2 3CLpro (Severe acute respiratory syndrome coronavirus 2, UniProt P0DTD1).
T2 construct: SARS-Cov-2 3CLpro and HRV3C Duplex Assay
Description: SARS-Cov-2 3CLpro and HRV3C duplex assay (SAMDI-MS): 3CLpro. The data set is classed as biochemical. Conditions: 3CLpro, duplex assay, 30 mins preincubation; class symbols; read-out: SARS-Cov-2 IC50.

Data set [5] addresses T3, HRV3C (Human rhinovirus 14, UniProt P03303).
T3 construct: SARS-Cov-2 3CLpro and HRV3C Duplex Assay
The data set can be described thus: biochemical. Conditions: read-out: HRV IC50.

Data set [6] concerns human beta-coronavirus OC43. Description: OC43 coronavirus assay in HeLa cells (cytopathic effect, cell-titer-glo). In kind it is cell-based. A general note: Damage to the host cells serves as the signal in cytopathic effect assays.
The mark [7] stands for this setting: HRV3C, duplex assay, 30 mins preincubation, class symbols.
Setting [8] is: Betacoronavirus 1, 144 h, OC43 in HeLa cells, 6 days at 33° C., class symbols, read-out: EC50.

Each structure is given as a SMILES string. Read-outs that look alike come from different tables or passages of the source.

T3 sequence (P03303 1538-1719): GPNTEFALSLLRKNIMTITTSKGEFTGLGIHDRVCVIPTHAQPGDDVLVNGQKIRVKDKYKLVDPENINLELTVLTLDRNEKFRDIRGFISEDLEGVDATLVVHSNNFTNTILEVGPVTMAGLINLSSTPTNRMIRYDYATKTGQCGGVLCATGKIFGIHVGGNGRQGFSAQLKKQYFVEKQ

As usually defined, the CC50 is the concentration that lowers cell viability or growth by half. Read a high CC50 as better tolerance by the cells. The IC50 is the midpoint of a concentration-inhibition curve. The EC50 is the concentration needed to bring the measured effect to its halfway point. `COc1ccc(-c2csc(C(=O)N3CCC4(CC4)C[C@H]3C(=O)N[C@@H](C[C@@H]3CCNC3=O)C(=O)C(=O)NC3CC3)n2)cc1` [Compound 37] gave a half-maximal cytotoxic concentration (CC50) at 6 days in data set [1] (numeric bound, unit inferred) above 100 µM. Moreover, the results for the IC50 in data set [2], in data set [4] and in data set [5] (setting [7]) were at least 10 µM, 0.2 to 2 µM and 0.2 to 2 µM, respectively. Besides, the EC50 was 1 to 10 µM in data set [3] and 0.1 to 1 µM in data set [6] (setting [8]).

Compound `N#C[C@H](C[C@@H]1CCNC1=O)NC(=O)[C@@H]1CC2(CCN1C(=O)c1ncc(-c3ccccc3)s1)CC2` [Example 52, (S)—N—((S)-1-cyano-2-((S)-2-oxopyrrolidin-3-yl)ethyl)-6-(5-phenylthiazole-2-carbonyl)-6-azaspiro[2.5]octane-5-carboxamide] gave a CC50 at 6 days in data set [1] (numeric bound, unit inferred) above 100 µM. In addition, the IC50 in data set [2] is at least 10 µM; in data set [4], 0.2 to 2 µM; in data set [5] (HRV3C, duplex assay, numeric bound: >10 indicates an IC50>10000 nM) it was above 10 µM. The EC50 was 10 to 100 µM in data set [3] and above 10 µM in data set [6] (Betacoronavirus 1, OC43, HeLa).

Compound `CC(C)(C)[C@H](NC(=O)C(F)(F)F)C(=O)N1CCC2(CC2)C[C@H]1C(=O)N[C@H](C#N)C[C@@H]1CCNC1=O` [Compound 35, (S)—N—((S)-1-cyano-2-((S)-2-oxopyrrolidin-3-yl)ethyl)-6-((S)-3,3-dimethyl-2-(2,2,2-trifluoroacetamido)butanoyl)-6-azaspiro[2.5]octane-5-carboxamide] showed a CC50 at 6 days in data set [1] (class symbols) of at least 100 µM. The figures for the IC50 in data set [2], in data set [4] and in data set [5] were at least 10 µM, below 0.02 µM and above 10 µM, respectively. Besides, the EC50 in data set [3] was below 1 µM; in data set [6] (setting [8]), 0.1 to 1 µM.

For the compound `O=C(NC1CC1)C(=O)[C@H](C[C@@H]1CCNC1=O)NC(=O)[C@@H]1CC2(CCN1C(=O)c1nc(-c3ccc(Cl)cc3)cs1)CC2` [Compound 44], the CC50 at 6 days in data set [1] (class symbols) is 10 to 100 µM. Besides, the half-inhibitory concentration (IC50) in data set [2] is at least 10 µM; in data set [4], 0.2 to 2 µM; in data set [5], above 10 µM. The EC50 in data set [3] was 1 to 10 µM; in data set [6] (setting [8]), 0.1 to 1 µM.

As for `O=C(NC1CC1)C(=O)C(C[C@@H]1CCNC1=O)NC(=O)[C@@H]1CC2(CCN1C(=O)c1nc3ccccc3s1)CC2` (stereo partly drawn) [Compound 23, 3-{[(5S)-6-(1,3-benzothiazole-2-carbonyl)-6-azaspiro[2.5]octan-5-yl]formamido}-N-cyclopropyl-2-oxo-4-[(3S)-2-oxopyrrolidin-3-yl]butanamide], in data set [1] (class symbols), the CC50 at 6 days was at least 100 µM. The IC50 is at least 10 µM in data set [2], 0.02 to 0.2 µM in data set [4] and 2 to 20 µM in data set [5] (setting [7]). The concentration giving a half-maximal response (EC50) was 1 to 10 µM in data set [3] and 0.1 to 1 µM in data set [6] (setting [8]).

For `COc1ccccc1-c1csc(C(=O)N2CCC3(CC3)C[C@H]2C(=O)N[C@@H](C[C@@H]2CCNC2=O)C(=O)C(=O)NC2CC2)n1` [Compound 42], in data set [1] (numeric bound, unit inferred), the CC50 at 6 days was above 100 µM. Also, the IC50 in data set [2] is at least 10 µM; in data set [4] it was 0.2 to 2 µM; in data set [5], above 10 µM. Further, the concentration for a half-maximal effect (EC50) in data set [3] was 1 to 10 µM; in data set [6] (setting [8]), 0.1 to 1 µM.

With `O=C(NC1CC1)C(=O)C(C[C@@H]1CCNC1=O)NC(=O)[C@@H]1CC2(CCN1C(=O)c1cc3cccc(Cl)c3s1)CC2` (stereo partly drawn) [Example 12, (5S)-6-(7-chlorobenzo[b]thiophene-2-carbonyl)-N-(4-(cyclopropylamino)-3,4-dioxo-1-((S)-2-oxopyrrolidin-3-yl)butan-2-yl)-6-azaspiro[2.5]octane-5-carboxamide], the CC50 at 6 days in data set [1] (class symbols) fell in the range of 10 to 100 µM. For the same compound, the values for the half-inhibitory concentration (IC50) in data set [2], in data set [4] and in data set [5] (setting [7]) were 1 to 10 µM, below 0.02 µM and 0.02 to 0.2 µM, respectively. Also, the results for the EC50 in data set [3] and in data set [6] (setting [8]) were below 1 µM and 0.1 to 1 µM, respectively.

The compound `CC(C)(C)[C@H](NC(=O)C(F)(F)F)C(=O)N1[C@H]2C[C@@H]([C@H]1C(=O)N[C@H](C#N)C[C@@H]1CCNC1=O)C1(CC1)C2` [Compound 50, (1R,4S,6S)—N-[(1S)-1-cyano-2-[(3S)-2-oxopyrrolidin-3-yl]ethyl]-5-[(2S)-3,3-dimethyl-2-(2,2,2-trifluoroacetamido)butanoyl]-5-azaspiro[bicyclo[2.2.1]heptane-2,1′-cyclopropane]-6-carboxamide] had a cytotoxic concentration (CC50) at 6 days in data set [1] (numeric bound, unit inferred) above 100 µM. Moreover, the values for the 50% inhibitory concentration (IC50) in data set [2], in data set [4] and in data set [5] were at least 10 µM, below 0.02 µM and above 10 µM, respectively. The EC50 in data set [3] was below 1 µM; in data set [6] (setting [8]) it was below 0.1 µM.

Compound `O=C(NC1CC1)C(=O)[C@H](C[C@@H]1CCNC1=O)NC(=O)[C@@H]1CC2(CCN1C(=O)c1csc(-c3cccc(Cl)c3)n1)CC2` [Compound 45] registered a cytotoxic concentration (CC50) at 6 days in data set [1] (class symbols) of 10 to 100 µM. The IC50 in data set [2] was at least 10 µM; in data set [4] it was 0.02 to 0.2 µM; in data set [5] (setting [7]) it was 2 to 20 µM. The values for the concentration for a half-maximal effect (EC50) in data set [3] and in data set [6] (setting [8]) were below 1 µM and 0.1 to 1 µM, respectively.

In data set [1] (class symbols), `O=C(NC1CC1)C(=O)C(C[C@@H]1CCNC1=O)NC(=O)[C@@H]1[C@@H]2C[C@@H](CC23CC3)N1C(=O)c1nc(-c2ccccc2)cs1` (stereo partly drawn) [Compound 26, N-cyclopropyl-2-oxo-4-[(3S)-2-oxopyrrolidin-3-yl]-3-[(1R,4S,6S)-5-(4-phenyl-1,3-thiazole-2-carbonyl)-5-azaspiro[bicyclo[2.2.1]heptane-2,1′-cyclopropan]-6-ylformamido]butanamide] yielded a 50% cytotoxic concentration (CC50) at 6 days of at least 100 µM. Besides, the half-maximal inhibitory concentration (IC50) was at least 10 µM in data set [2], 0.2 to 2 µM in data set [4] and 0.2 to 2 µM in data set [5] (setting [7]). For the same compound, the EC50 in data set [3] and in data set [6] (setting [8]) was 1 to 10 µM throughout.

Regarding `CC(C)(C)c1csc(C(=O)N2CCC3(CC3)C[C@H]2C(=O)N[C@@H](C[C@@H]2CCNC2=O)C(=O)C(=O)NC2CC2)n1` [Compound 39], in data set [1] (numeric bound, unit inferred), the CC50 at 6 days was above 100 µM. Moreover, the 50% inhibitory concentration (IC50) in data set [2] was in the range of 1 to 10 µM; in data set [4], 0.2 to 2 µM; in data set [5] (setting [7]), 2 to 20 µM. For the same compound, the 50% effective concentration (EC50) is 1 to 10 µM in data set [3] and 0.1 to 1 µM in data set [6] (setting [8]).

As to `O=C(NC1CC1)C(=O)[C@H](C[C@@H]1CCNC1=O)NC(=O)[C@@H]1CC2(CCN1C(=O)c1ccc3ccccc3c1)CC2` [Compound 21, (S)-6-(2-naphthoyl)-N—((S)-4-(cyclopropylamino)-3,4-dioxo-1-((S)-2-oxopyrrolidin-3-yl)butan-2-yl)-6-azaspiro[2.5]octane-5-carboxamide], the 50% cytotoxic concentration (CC50) at 6 days in data set [1] (class symbols) is at least 100 µM. The concentration for half-maximal inhibition (IC50) in data set [2] was 1 to 10 µM; in data set [4], below 0.02 µM; in data set [5] (setting [7]) it was 0.2 to 2 µM. Besides, the figures for the EC50 in data set [3] and in data set [6] (setting [8]) were below 1 µM and 0.1 to 1 µM, respectively.

In data set [1] (class symbols), `O=C(NC1CC1)C(=O)[C@H](C[C@@H]1CCNC1=O)NC(=O)[C@@H]1CC2(CCN1C(=O)[C@H]1CCCc3ccccc31)CC2` [Compound 33] gave a 50% cytotoxic concentration (CC50) at 6 days of at least 100 µM. Further, the 50% inhibitory concentration (IC50) is at least 10 µM in data set [2], 0.02 to 0.2 µM in data set [4] and 0.2 to 2 µM in data set [5] (setting [7]). Also, the 50% effective concentration (EC50) is below 1 µM in data set [3] and 1 to 10 µM in data set [6] (setting [8]).

In the case of `O=C(NC1CC1)C(=O)[C@H](C[C@@H]1CCNC1=O)NC(=O)[C@@H]1CC2(CCN1C(=O)c1ncc(-c3ccccc3)s1)CC2` [Example 1, (S)—N—((S)-4-(cyclopropylamino)-3,4-dioxo-1-((S)-2-oxopyrrolidin-3-yl)butan-2-yl)-6-(5-phenylthiazole-2-carbonyl)-6-azaspiro[2.5]octane-5-carboxamide], in data set [1] (class symbols), the CC50 at 6 days fell in the range of 10 to 100 µM. Further, the half-maximal inhibitory concentration (IC50) in data set [2] was at least 10 µM; in data set [4], 0.02 to 0.2 µM; in data set [5] (setting [7]) it was 0.2 to 2 µM. For the same compound, the EC50 was below 1 µM in data set [3] and 0.1 to 1 µM in data set [6] (setting [8]).
